These results are taken from the NIST ThermoML archive (doi:10.1016/j.fluid.2014.05.034).

The conditions of data set [1]: for Normal melting temperature: Crystal; for mass density: 101.33 kPa, Liquid, Vibrating tube method.
The nature of data set [2]: Molar enthalpy of transition or fusion. To be noted: Crystal; DSC.

± gives the expanded uncertainty stated by the source.

Regarding `C[n+]1ccn(CC#N)c1.N#Cc1nc(C(F)(F)F)[n-]c1C#N`, the Normal melting temperature amounted to 92.7 ± 0.5 °C in data set [1] (DTA) and 93.0 ± 1.1 °C in data set [1] (visual observation). Moreover, the “Molar enthalpy of transition or fusion” value in data set [2] was found to be 7.36 ± 0.213 kcal/mol.
Broadly, the mass density is mass per unit of volume. `OCCc1ccccc1` [2-phenylethanol]: the mass density in data set [1] (293.15 K) amounted to 1019 ± 1 kg/m3.
As for `CC[N+]1(C)CCCCC1.O=S(=O)([N-]S(=O)(=O)C(F)(F)F)C(F)(F)F`, in data set [1] (visual observation), the Normal melting temperature is 82.8 ± 1.1 °C.
With `CCCCCC[n+]1ccc2ccccc2c1.O=S(=O)([N-]S(=O)(=O)C(F)(F)F)C(F)(F)F` [N-hexylisoquinolinium bis(trifluoromethylsulfonyl)imide], the Normal melting temperature in data set [1] (visual observation) is 55.2 ± 1.1 °C.
Regarding `CCCCCC[n+]1cccc2ccccc21.O=S(=O)([N-]S(=O)(=O)C(F)(F)F)C(F)(F)F` [1-hexylquinolinium bis(trifluoromethylsulfonyl)amide], the Normal melting temperature in data set [1] (visual observation) is 45 ± 1.1 °C.
As to `CCCCn1cc[n+](C)c1.N#CC1=NC(C(F)(F)F)=NC1=C=[N-]`, in data set [1] (298.15 K), the mass density worked out at 1199.65 ± 5 kg/m3.
